From ChEMBL document CHEMBL4396887, “Five-Membered N-Heterocyclic Scaffolds as Novel Amino Bioisosteres at γ-Aminobutyric Acid (GABA) Type A Receptors and GABA Transporters” (J Med Chem, 2019)
Activity calls are given as the source filed them. The calls are words filed in the database; no cut-off is given here.

Legend:
[1] = target: T1, GABA-A receptor; alpha-1/beta-2/gamma-2 (Homo sapiens) (UniProt P14867+P47870+P18507); experiment: Agonist activity at recombinant human GABA-A alpha1beta2gamma2S receptor transiently expressed in human tsA201 cells at >= 100 uM incubated for 30 mins and measured up to 90 secs by FMP dye based FLIPR membrane potential blue assay; type: cell-based
[2] = target: T2, Gamma-aminobutyric acid receptor subunit rho-1 (Homo sapiens, UniProt P24046); experiment: Agonist activity at recombinant human GABA-A rho-1 receptor transiently expressed in human tsA201 cells at 300 uM incubated for 30 mins and measured up to 90 secs by FMP dye based FLIPR membrane potential blue assay; type: cell-based
T2 sequence (P24046 whole entry): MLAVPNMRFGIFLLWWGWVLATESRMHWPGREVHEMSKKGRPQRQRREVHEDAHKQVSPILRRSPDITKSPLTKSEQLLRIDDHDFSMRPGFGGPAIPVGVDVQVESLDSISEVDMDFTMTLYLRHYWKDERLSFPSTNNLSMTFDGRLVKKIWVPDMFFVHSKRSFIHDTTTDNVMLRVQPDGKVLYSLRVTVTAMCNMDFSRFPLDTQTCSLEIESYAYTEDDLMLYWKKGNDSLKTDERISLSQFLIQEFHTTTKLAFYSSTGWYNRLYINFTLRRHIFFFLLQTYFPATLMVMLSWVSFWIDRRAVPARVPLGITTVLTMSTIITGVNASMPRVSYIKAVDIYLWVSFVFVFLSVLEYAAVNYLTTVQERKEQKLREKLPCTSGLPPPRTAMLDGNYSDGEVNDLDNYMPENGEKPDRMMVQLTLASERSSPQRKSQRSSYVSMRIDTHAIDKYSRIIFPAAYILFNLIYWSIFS

[3] = target: T2, Gamma-aminobutyric acid receptor subunit rho-1; experiment: Antagonist activity at recombinant human GABA-A rho-1 receptor transiently expressed in human tsA201 cells incubated for 30 mins and measured up to 90 secs by FMP dye based FLIPR membrane potential blue assay; type: cell-based
[4] = target: GABA-A receptor; anion channel; experiment: Displacement of [3H]muscimol from GABA(A) receptor in Sprague-Dawley rat cortical synaptic membranes by liquid scintillation counting
[5] = target: T3, Gamma-aminobutyric acid receptor subunit alpha-4/beta-2/gamma-2 (Homo sapiens, UniProt P47870+P18507+P48169); experiment: Agonist activity at recombinant human GABA-A alpha4beta2gamma2S receptor transiently expressed in human tsA201 cells assessed as GABA-induced maximum response incubated for 30 mins and measured up to 90 secs by FMP dye based FLIPR membrane potential blue assay relative to GABA; type: cell-based
T3 sequence (P48169 whole entry, one chain of several): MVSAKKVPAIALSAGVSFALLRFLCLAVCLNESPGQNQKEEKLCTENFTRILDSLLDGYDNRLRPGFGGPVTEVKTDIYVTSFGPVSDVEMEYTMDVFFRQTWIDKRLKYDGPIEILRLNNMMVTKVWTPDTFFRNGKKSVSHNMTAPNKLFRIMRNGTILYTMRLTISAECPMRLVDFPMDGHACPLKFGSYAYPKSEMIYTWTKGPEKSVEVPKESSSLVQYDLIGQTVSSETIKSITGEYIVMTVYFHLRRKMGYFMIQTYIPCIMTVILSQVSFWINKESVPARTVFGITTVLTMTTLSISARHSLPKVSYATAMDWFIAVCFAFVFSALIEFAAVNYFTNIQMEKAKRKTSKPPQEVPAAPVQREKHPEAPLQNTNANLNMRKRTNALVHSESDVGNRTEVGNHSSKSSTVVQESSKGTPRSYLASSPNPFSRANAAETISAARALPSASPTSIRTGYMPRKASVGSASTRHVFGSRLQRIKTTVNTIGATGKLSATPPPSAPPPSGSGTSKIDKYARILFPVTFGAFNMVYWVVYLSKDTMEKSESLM

[6] = target: T1, GABA-A receptor; alpha-1/beta-2/gamma-2 (Homo sapiens); experiment: Agonist activity at recombinant human GABA-A alpha1beta2gamma2S receptor transiently expressed in human tsA201 cells assessed as GABA-induced maximum response incubated for 30 mins and measured up to 90 secs by FMP dye based FLIPR membrane potential blue assay relative to GABA; type: cell-based
Homo sapiens [7] = organism: Homo sapiens; experiment: Agonist activity at recombinant human GABA-A alpha3beta2gamma2S receptor transiently expressed in human tsA201 cells assessed as GABA-induced maximum response incubated for 30 mins and measured up to 90 secs by FMP dye based FLIPR membrane potential blue assay relative to GABA; type: cell-based
[8] = target: Gamma-aminobutyric acid receptor subunit alpha-5/beta-2/gamma-2 (Homo sapiens) (UniProt P47870+P18507+P31644); experiment: Agonist activity at recombinant human GABA-A alpha5beta2gamma2S receptor transiently expressed in human tsA201 cells assessed as GABA-induced maximum response incubated for 30 mins and measured up to 90 secs by FMP dye based FLIPR membrane potential blue assay relative to GABA; type: cell-based
[9] = target: T3, Gamma-aminobutyric acid receptor subunit alpha-4/beta-2/gamma-2; experiment: (§1) Agonist activity at recombinant human GABA-A alpha4beta2gamma2S receptor transiently expressed in human tsA201 cells incubated for 30 mins and measured up to 90 secs by FMP dye based FLIPR membrane potential blue assay; type: cell-based
[10] = target: T1, GABA-A receptor; alpha-1/beta-2/gamma-2 (Homo sapiens); experiment: (§2) Agonist activity at recombinant human GABA-A alpha1beta2gamma2S receptor transiently expressed in human tsA201 cells incubated for 30 mins and measured up to 90 secs by FMP dye based FLIPR membrane potential blue assay; type: cell-based
[11] = target: T4, GABA-A receptor; alpha-1/beta-2/gamma-2 (Homo sapiens, UniProt P14867+P47870+P18507); experiment: as §2; type: cell-based
T4 sequence (P14867 whole entry): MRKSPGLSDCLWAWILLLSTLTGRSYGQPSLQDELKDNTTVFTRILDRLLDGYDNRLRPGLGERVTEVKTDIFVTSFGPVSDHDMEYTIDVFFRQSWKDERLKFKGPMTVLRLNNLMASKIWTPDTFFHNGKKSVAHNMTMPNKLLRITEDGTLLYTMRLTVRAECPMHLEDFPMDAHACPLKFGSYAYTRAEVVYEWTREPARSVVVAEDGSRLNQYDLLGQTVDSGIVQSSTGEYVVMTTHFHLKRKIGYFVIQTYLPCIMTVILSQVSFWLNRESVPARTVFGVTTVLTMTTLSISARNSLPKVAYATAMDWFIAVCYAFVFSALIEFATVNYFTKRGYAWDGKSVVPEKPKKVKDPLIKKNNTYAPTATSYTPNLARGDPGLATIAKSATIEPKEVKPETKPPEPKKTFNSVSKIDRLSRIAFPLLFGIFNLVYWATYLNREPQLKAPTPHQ
T4 sequence (P47870 whole entry): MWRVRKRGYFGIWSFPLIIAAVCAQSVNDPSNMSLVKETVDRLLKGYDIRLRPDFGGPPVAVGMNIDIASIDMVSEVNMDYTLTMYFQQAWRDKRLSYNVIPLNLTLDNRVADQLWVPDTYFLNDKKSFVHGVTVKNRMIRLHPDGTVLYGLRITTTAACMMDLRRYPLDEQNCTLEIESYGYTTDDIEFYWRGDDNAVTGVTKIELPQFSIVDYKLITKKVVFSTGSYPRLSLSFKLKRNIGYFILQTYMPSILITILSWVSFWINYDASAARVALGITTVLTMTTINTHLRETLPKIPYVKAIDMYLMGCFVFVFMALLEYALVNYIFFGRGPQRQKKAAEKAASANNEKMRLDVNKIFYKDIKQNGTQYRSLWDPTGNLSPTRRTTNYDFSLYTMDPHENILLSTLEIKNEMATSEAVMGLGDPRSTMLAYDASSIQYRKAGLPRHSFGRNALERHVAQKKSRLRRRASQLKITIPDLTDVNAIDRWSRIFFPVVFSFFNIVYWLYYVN
T4 sequence (P18507 whole entry): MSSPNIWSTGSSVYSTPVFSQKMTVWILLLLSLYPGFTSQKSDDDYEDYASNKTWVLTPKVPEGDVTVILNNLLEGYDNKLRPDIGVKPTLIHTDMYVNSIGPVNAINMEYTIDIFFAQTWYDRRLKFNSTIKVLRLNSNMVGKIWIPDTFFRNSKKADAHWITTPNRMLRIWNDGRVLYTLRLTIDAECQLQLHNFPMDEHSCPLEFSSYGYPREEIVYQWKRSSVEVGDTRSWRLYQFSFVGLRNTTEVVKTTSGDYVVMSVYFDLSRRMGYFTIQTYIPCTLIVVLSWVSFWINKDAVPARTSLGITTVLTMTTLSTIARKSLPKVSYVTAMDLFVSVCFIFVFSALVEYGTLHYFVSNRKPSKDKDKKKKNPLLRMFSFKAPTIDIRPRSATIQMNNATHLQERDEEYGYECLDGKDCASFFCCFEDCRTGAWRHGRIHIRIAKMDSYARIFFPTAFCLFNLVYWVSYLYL

cells = type: cell-based; conditions: Homo sapiens, tsA201, 0.5 h
[12] = target: T3, Gamma-aminobutyric acid receptor subunit alpha-4/beta-2/gamma-2; experiment: Agonist activity at recombinant human GABA-A alpha4beta2gamma2S receptor transiently expressed in human tsA201 cells at >= 300 uM incubated for 30 mins and measured up to 90 secs by FMP dye based FLIPR membrane potential blue assay; type: cell-based
[13] = target: T5, Gamma-aminobutyric acid receptor subunit alpha-5/beta-2/gamma-2 (Homo sapiens, UniProt P18507+P31644+P47870); experiment: Agonist activity at recombinant human GABA-A alpha5beta2gamma2S receptor transiently expressed in human tsA201 cells incubated for 30 mins and measured up to 90 secs by FMP dye based FLIPR membrane potential blue assay; type: cell-based
T5 sequence (P47870 whole entry): T4 sequence (P47870 whole entry)
T5 sequence (P18507 whole entry): T4 sequence (P18507 whole entry)
T5 sequence (P31644 whole entry): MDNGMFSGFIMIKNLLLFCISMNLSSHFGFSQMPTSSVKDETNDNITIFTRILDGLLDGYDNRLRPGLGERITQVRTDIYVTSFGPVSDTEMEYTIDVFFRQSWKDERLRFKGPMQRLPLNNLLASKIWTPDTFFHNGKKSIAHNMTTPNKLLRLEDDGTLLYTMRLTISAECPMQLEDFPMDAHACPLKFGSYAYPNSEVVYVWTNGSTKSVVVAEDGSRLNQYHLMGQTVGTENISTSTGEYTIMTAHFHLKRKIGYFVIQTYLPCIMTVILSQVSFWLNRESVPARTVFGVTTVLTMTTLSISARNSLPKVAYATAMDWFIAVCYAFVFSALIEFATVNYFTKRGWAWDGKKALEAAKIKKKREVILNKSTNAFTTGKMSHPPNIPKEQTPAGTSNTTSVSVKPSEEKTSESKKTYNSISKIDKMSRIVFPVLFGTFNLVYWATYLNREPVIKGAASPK

[14] = target: T2, Gamma-aminobutyric acid receptor subunit rho-1; experiment: Agonist activity at recombinant human GABA-A rho-1 receptor transiently expressed in human tsA201 cells incubated for 30 mins and measured up to 90 secs by FMP dye based FLIPR membrane potential blue assay; type: cell-based
[15] = target: T3, Gamma-aminobutyric acid receptor subunit alpha-4/beta-2/gamma-2; experiment: Agonist activity at recombinant human GABA-A alpha4beta2gamma2S receptor transiently expressed in human tsA201 cells at >= 100 uM incubated for 30 mins and measured up to 90 secs by FMP dye based FLIPR membrane potential blue assay; type: cell-based
[16] = target: T2, Gamma-aminobutyric acid receptor subunit rho-1; experiment: Agonist activity at recombinant human GABA-A rho-1 receptor transiently expressed in human tsA201 cells assessed as GABA-induced maximum response incubated for 30 mins and measured up to 90 secs by FMP dye based FLIPR membrane potential blue assay relative to GABA; type: cell-based
[17] = Ionization constant, pKa2 of the compound at 1 mM by potentiometric titration assay; type: physicochemical
Homo sapiens [18] = organism: Homo sapiens
[19] = target: T2, Gamma-aminobutyric acid receptor subunit rho-1; experiment: Agonist activity at recombinant human GABA-A rho-1 receptor transiently expressed in human tsA201 cells at >= 100 uM incubated for 30 mins and measured up to 90 secs by FMP dye based FLIPR membrane potential blue assay; type: cell-based
Homo sapiens [20] = organism: Homo sapiens; experiment: Agonist activity at recombinant human GABA-A alpha3beta2gamma2S receptor transiently expressed in human tsA201 cells at >= 100 uM incubated for 30 mins and measured up to 90 secs by FMP dye based FLIPR membrane potential blue assay; type: cell-based
[21] = target: Gamma-aminobutyric acid receptor subunit alpha-4/beta-2/gamma-2 (Homo sapiens, UniProt P18507+P47870+P48169); experiment: as §1; type: cell-based; conditions: read-out: EC50
Sequence of Gamma-aminobutyric acid receptor subunit alpha-4/beta-2/gamma-2 (Homo sapiens, UniProt P18507+P47870+P48169) (P48169 whole entry, one chain of several): as the sequence (P48169 whole entry, one chain of several) above

Structure (SMILES) | Activity [1] | Ki [4] [µM] | Rmax [5] | Rmax [6] | Rmax (Homo sapiens [7]) | Rmax [8] [%] | EC50 [9] | pEC50 [9] | pEC50 [10] | EC50 [11] | EC50 (cells; read-out: EC50) [µM] | EC50 (cells; read-out: pEC50 (converted)) [µM] | EC50 [13] [µM] | Rmax [16] | pKa at 1000 µM [17] | Activity [19] | further results
CC1(CC(=O)O)CSC(N)=N1 (configuration not stated) | Active | 2.2 | inactive | inactive | 80% | 92 | Not Active | inactive | inactive | Not Active | 26 | 25.7 | 4.5 |  |  |  | Activity [2]: inactive; IC50 [3]: 300 µM; Activity [12]: Active
Nc1nc(CC(=O)O)cs1 | Active | 32 | inactive | inactive | inactive | 85 | Not Active | inactive | inactive | Not Active |  |  | 24 | inactive | 6.08 | Active | EC50 [14]: Not Active; pEC50 [14]: inactive; Activity [15]: Active; pEC50 (Homo sapiens [18]): inactive; Activity (Homo sapiens [20]): Active
O=C(O)Cc1c[nH]cn1 [IMIDAZOLE ACETIC ACID] |  |  | 81% | 46% | 89% | 92 |  |  |  |  | 8.1 | 8.13 | 1.8 | 46% | 7.13 | Active | EC50 ([14]; read-out: EC50): 4.6 µM; EC50 [21]: 19 µM
